Source: publication PMC3863390 (Molecular nutrition & food research, 2012)
Where “and” joins values, the source holds several entries; their conditions need not be identical. Identical values can stand only once.

Legend:
[1] = system: RT4 cells; assay: SRB cell viability assay in RT4 cells; format: cell-based, human; details: for RT4 cell viability inhibition: 20 μM, 48 hr
[2] = system: UMUC3 xenograft; assay: UMUC3 xenograft in athymic nude mice; format: in vivo, mouse; details: 295 μmol/kg/day oral gavage, 2 weeks
[3] = system: EGFR; assay: Western blot of EGFR expression, UMUC3; format: cell-based, human; details: 20 μM, 48 hr
[4] = system: survivin; assay: Western blot of survivin expression, UMUC3; format: cell-based, human; details: 20 μM, 48 hr
[5] = system: PARP; assay: Western blot of PARP cleavage, UMUC3; format: cell-based, human; details: 20 μM, 48 hr
[6] = system: survivin; details: RT4; 20 μM, 48 hr
[7] = system: EGFR; assay: Western blot of EGFR expression, RT4; format: cell-based, human; details: 20 μM, 48 hr
[8] = system: J82 cells; assay: Cell cycle analysis by flow cytometry, J82; format: cell-based, human; details: 20 μM, 48 hr
[9] = system: RT4 cells; assay: Cell cycle analysis by flow cytometry, RT4; format: cell-based, human; details: 20 μM, 48 hr
[10] = system: caspase 3/7; assay: Apo-ONE caspase-3/7 assay, RT4; format: cell-based, human; details: 10 μM, 48 hr
[11] = system: Normal human bladder urothelial cells (NHU); assay: tissue or blood; format: cell-based
[12] = system: HER2/neu; assay: Western blot of HER2/neu expression, RT4; format: cell-based, human; details: 20 μM, 48 hr
[13] = system: J82 cells; assay: SRB cell viability assay in J82 cells; format: cell-based; details: Homo sapiens, J82, 48 h, read-out: IC50, cell viability
[14] = system: PARP; assay: Western blot of PARP cleavage, RT4; format: cell-based, human; details: 20 μM, 48 hr
[15] = system: UMUC3 cells; assay: cells; format: cell-based; details: Homo sapiens, UMUC3, 48 h, read-out: IC50, cell viability
[16] = system: HER2/neu; assay: Western blot of HER2/neu expression, UMUC3; format: cell-based, human; details: 20 μM, 48 hr
[17] = system: human bladder cancer cell lines (HBCCs); format: cell-based; details: p>0.8, data not shown

C=CCN=C=S [allyl isothiocyanate]
RT4 cell viability inhibition [1]: 28%

C[S+]([O-])CCCCN=C=S (centres unmarked) [sulforaphane]
inhibition of tumor growth rate [2]: 42% | decrease in final tumor weight ([2]; versus vehicle control soy bean oil): 33% | EGFR protein expression downregulated [3]: 54% | survivin expression downregulated [4]: 35% | PARP cleavage increase [5]: 3.6 fold | decrease in survivin expression [6]: 51% and 44% | RT4 cell viability inhibition [1]: 64% | IC50 ([1]; Homo sapiens, RT-4, 48 h, read-out: IC50, cell viability): 11.2 ± 0.3 µM | changes in EGFR expression [7]: does not lead to significant changes | increase of cells in the G2/M phase [8]: 3 fold | increase of cells in the G2/M phase compared to control [9]: 2.6 fold | increase in caspase 3/7 activity compared to control [10]: 2.5 fold | inhibition at 20 µM ([11]; Homo sapiens, 72 h, read-out: inhibition of NHU): 62% | IC50, cell viability ([11]; NHU cells, 72 hr): not reached | decrease of HER2/neu expression [12]: 10% | IC50 [13]: 7.7 ± 1.8 µM | PARP cleavage increase [14]: 2.3 fold | IC50 [15]: 5.66 ± 1.2 µM | HER2/neu downregulated [16]: 90%

C[S@+]([O-])CCCCN=C=S [S-sulforaphane]
difference between isomers in inhibitory effects of HBCCs [17]: no difference

C[S+]([O-])CCCCN=C=S (centres unmarked) [R-sulforaphane]
difference between isomers in inhibitory effects of HBCCs [17]: no difference

C[S+]([O-])CCCN=C=S (centres unmarked) [iberin]
RT4 cell viability inhibition [1]: 12%
